In the test the test system is HBV. Briefly: Anti-viral activity: viral DNA by Q-PCR in tetracycline-responsive HepAD38 cells. In kind it is cell-based. The note with it: for EC50: HepAD38 cells, viral DNA at day 4 post-induction, Q-PCR; for Improvement Compared to araA: therapeutic effect relative to araA (=1.00). On the procedure:
Tetracycline-responsive cell lines HepAD38 were used (Ladner et al., 1997), hepatoma cells that have been stably transfected with a cDNA copy of the pregenomic RNA of wild-type virus. Withdrawal of tetracycline from the culture medium results in the initiation of viral replication. Cells were cultured at 37° C. in a humidified 5% CO2/air atmosphere in seeding medium, DMEM/Ham's F12 (50/50) supplemented with 10% (v/v) heat-inactivated fetal calf serum, 100 IU/ml penicillin/50 μg/ml streptomycin mix, 400 μg/ml G418, and 0.3 μg/ml tetracycline.
Upon assay initiation, the cells were seeded in 48-well plates at a density of 1.5×10^5/well. After 2-3 days the cultures were induced for viral production by washing with prewarmed PBS and were fed with 200 μl assay medium (seeding medium without tetracycline and G418) with or without the antiviral compounds. Medium was changed after 3 days. The antiviral effect was quantified by measuring levels of viral DNA [isolated (Qiagen) from the cell cultures] at day 4 post-induction, by a real time quantitative PCR (Q-PCR) and analyzed using a SDS 7000 (Applied Biosystems, Foster City, Calif.).
A plasmid containing the full length insert of the HBV genome was used to prepare the standard curve. The amount of viral DNA produced in treated cultures was expressed as a percentage of the mock treated samples. The cytostatic effect of the various compounds was assessed employing the parent hepatoma cell line HepG2. The effect of the compounds on exponentially growing HepG2 cells was evaluated by means of the MTS method (Promega). Briefly, cells were seeded at a density of 3000/well (96 well plate) and were allowed to proliferate for 3 days in the absence or presence of compounds after which time cell density was determined.

In brackets after ≈: the same amount, converted by molar mass.

The source of these data is US20070021380A1, “Novel drug delivery compositions” (priority 2005, published 2007).

Usually EC50 stands for the concentration giving half of the maximal effect. A higher EC50 goes with lower potency in that assay.

With `Nc1ncnc2c1ncn2[C@@H]1O[C@H](COP(=O)(O)O)[C@@H](O)[C@@H]1O` [araAMP, araA-monophosphate], the EC50 turned out to be 33 µg/mL (≈ 95 µM) and the “Improvement Compared to araA” value is given as 1.35.
As to `Nc1ncnc2c1ncn2[C@@H]1O[C@H](CO)[C@@H](O)[C@@H]1O` [araA], the 50% effective concentration (EC50) stood at 35 µg/mL (≈ 131 µM) and the “Improvement Compared to araA” value came out at 1.00.
